According to publication PMC6949113, “Preclinical evaluation of AT-527, a novel guanosine nucleotide prodrug with potent, pan-genotypic activity against hepatitis C virus” (PLoS ONE, 2020):
Values joined by “and” are separate entries in the source; they are usually repeats but may differ in a detail not shown here. Identical values can stand only once. Counter-ions that a name gives are not always drawn. Like-named read-outs stand apart in the source and are kept apart here.

Legend:
[1] = tested on: Flu B; assay: Anti-influenza B assay (XTT); type: cell-based, influenza virus type B; details: Influenza B virus; Flu B in MDCK cells
Source text: Anti-Influenza Type A and B Virus (Flu A & B). […] The influenza A/PR/8/34 (VR-95) and influenza B/Allen/45 (VR-102) was obtained from ATCC and a stock virus pool was produced in MDCK cells.
(§1) Determination of antiviral activity and cytotoxicity.

[2] = tested on: MDCK cells
[3] = tested on: Flu A; assay: Anti-influenza A assay (XTT); type: cell-based, influenza virus type A; details: Influenza A virus; Flu A in MDCK cells
[4] = tested on: HEp2 cells
[5] = tested on: RSV; assay: Anti-RSV assay (XTT); details: RSV in HEp2 cells
[6] = target: T1, human DNA polymerase γ (Homo sapiens, UniProt P54098); assay: Human DNA polymerase inhibition assay, γ; type: biochemical
T1 construct: purchased CHIMERx (Madison, WI)
T1 sequence (P54098 whole entry): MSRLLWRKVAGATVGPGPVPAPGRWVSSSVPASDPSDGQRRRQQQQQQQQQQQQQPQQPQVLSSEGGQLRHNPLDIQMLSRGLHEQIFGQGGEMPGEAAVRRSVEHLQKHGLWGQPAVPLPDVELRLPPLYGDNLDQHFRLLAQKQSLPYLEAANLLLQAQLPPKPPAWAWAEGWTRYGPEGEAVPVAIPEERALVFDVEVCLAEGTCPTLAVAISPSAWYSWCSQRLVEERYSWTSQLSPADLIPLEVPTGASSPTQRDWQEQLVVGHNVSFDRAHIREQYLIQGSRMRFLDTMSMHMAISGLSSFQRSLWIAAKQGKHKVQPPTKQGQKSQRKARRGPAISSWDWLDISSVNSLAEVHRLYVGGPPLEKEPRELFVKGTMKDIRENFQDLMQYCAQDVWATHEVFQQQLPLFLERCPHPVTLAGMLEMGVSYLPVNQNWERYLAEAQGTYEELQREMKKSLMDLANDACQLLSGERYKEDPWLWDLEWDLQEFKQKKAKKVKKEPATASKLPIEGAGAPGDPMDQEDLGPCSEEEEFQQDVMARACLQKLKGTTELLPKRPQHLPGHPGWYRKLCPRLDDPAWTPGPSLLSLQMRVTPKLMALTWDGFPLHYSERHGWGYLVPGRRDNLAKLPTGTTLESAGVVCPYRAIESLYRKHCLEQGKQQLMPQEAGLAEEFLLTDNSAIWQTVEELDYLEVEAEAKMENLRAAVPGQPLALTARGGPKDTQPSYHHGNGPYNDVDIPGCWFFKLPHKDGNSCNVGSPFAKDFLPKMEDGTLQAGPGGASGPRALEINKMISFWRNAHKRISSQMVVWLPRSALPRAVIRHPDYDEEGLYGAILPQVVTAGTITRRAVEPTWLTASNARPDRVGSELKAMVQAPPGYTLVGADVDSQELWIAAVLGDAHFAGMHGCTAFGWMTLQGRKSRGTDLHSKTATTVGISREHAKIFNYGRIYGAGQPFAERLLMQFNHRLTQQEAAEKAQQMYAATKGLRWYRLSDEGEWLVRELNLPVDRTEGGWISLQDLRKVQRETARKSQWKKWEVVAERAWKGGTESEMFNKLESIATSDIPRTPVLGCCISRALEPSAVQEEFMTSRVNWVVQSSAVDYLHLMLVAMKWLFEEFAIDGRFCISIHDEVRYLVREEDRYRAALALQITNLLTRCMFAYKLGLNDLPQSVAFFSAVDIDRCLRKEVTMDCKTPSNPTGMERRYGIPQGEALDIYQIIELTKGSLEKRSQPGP
Experimental: (§2) The polymerases were purchased from CHIMERx (Madison, WI). Inhibition of DNA polymerase α activity was assayed in microtiter plates in 20 mM Tris-HCl, pH 8, 5 mM Mg acetate, 0.3 mg/mL BSA, 1mM DTT, 0.1 mM spermine, 0.05 mM dCTP, dTTP and dATP, 10 μCi ^32P-α-dGTP (800 Ci/mmol), 20 μg activated calf thymus DNA and the test compound at indicated concentrations. The DNA polymerase β and γ reaction mixture contained 50 mM Tris-HCl, pH 8.7, KCl (10 mM for β and 100 mM for γ), 10 mM MgCl2, 0.4 mg/mL BSA, 1mM DTT, 15% glycerol, 0.05 mM dCTP, dTTP and dATP, 10 μCi ^32P-α-dGTP (800 Ci/mmol), 20 μg activated calf thymus DNA and test compound at the indicated concentrations. For each assay, samples were run in triplicate, and positive controls were included. The enzyme reactions were allowed to proceed for 30 min at 37 °C followed by transfer onto glass-fiber filter plates and subsequent precipitation with 10% trichloroacetic acid (TCA). Plates were washed five times with 5% TCA, once with 95% ethanol and dried. The radioactive content of each filter was measured and used to determine the extent of inhibition of each polymerase.

[7] = target: human mitochondrial RNA polymerase (POLRMT) (Homo sapiens, UniProt O00411); details: nucleotide controls; cited from earlier work
Chain of human mitochondrial RNA polymerase (POLRMT) (O00411 42-1230): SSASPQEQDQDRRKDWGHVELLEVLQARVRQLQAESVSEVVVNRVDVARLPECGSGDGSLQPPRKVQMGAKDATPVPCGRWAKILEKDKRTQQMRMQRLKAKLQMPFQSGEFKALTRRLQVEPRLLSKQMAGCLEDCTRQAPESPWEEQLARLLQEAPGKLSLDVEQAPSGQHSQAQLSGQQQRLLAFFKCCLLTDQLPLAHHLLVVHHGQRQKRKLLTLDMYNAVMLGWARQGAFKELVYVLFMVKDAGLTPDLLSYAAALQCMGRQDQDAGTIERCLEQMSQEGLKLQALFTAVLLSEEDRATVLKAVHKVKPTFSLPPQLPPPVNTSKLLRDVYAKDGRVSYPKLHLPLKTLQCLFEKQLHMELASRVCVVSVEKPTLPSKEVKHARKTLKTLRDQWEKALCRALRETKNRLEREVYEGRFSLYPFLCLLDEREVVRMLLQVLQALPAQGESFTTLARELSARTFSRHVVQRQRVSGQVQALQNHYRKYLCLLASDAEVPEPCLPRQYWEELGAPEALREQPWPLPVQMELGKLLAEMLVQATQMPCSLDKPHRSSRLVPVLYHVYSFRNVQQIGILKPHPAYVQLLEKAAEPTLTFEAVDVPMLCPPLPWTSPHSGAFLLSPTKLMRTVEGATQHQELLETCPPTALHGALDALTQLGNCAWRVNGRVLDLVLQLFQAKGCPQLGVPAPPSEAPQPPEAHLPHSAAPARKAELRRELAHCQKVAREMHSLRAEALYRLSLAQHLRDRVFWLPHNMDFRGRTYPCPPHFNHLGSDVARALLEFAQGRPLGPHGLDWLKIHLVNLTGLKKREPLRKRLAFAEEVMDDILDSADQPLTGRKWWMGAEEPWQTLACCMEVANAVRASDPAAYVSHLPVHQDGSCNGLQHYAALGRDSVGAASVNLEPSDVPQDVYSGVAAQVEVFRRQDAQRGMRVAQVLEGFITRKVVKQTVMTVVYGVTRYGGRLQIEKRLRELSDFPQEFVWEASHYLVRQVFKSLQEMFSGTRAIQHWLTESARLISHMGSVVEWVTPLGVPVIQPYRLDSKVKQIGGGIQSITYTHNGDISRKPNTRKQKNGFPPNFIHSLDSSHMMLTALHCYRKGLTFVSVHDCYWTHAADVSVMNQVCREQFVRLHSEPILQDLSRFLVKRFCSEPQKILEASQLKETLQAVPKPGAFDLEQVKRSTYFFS

[8] = tested on: granulocyte macrophage (GM) human bone marrow progenitor cells; assay: Bone marrow progenitor cell inhibition assay, GM; type: cell-based; details: 14 days
[9] = tested on: CEM-SS cells; assay: XTT cytotoxicity, CEM-SS cells; type: cell-based; details: HIV-1 assay
[10] = tested on: HIV-1; assay: Anti-HIV-1 assay (XTT); type: cell-based, human immunodeficiency virus type 1; details: Human immunodeficiency virus 1; HIV-1 in CEM-SS cells
Experimental: Anti-Human Immunodeficiency Virus (HIV-1). CEM-SS cells were obtained from the NIH AIDS Research and Reference Reagent Program (Manassas, VA), resuspended at 5x10^4 cells per mL and 50 µL added to the microtiter plate wells. The lymphocyte-tropic virus strain HIV-1RF (obtained from the NIH AIDS Research and Reference Reagent Program and grown in CEM-SS cells for stock virus pools) was used for the assay.
as §1

[11] = tested on: erythroid (E) human bone marrow progenitor cells; assay: Bone marrow progenitor cell inhibition assay, E; type: cell-based; details: 14 days
Source text: Bone marrow progenitor cell inhibition assays. […] The resulting number of colonies (greater than 30 cells) were compared to control wells to determine the extent of cytotoxicity.

[12] = tested on: human iPS cardiomyocytes; type: cell-based; details: 3 days
Experimental: Cardiomyocyte assay. […] Test or positive control compounds were then added in triplicate and the incubations continued for 3 days. Cell viability was measured by XTT and CellTiter Glo staining. For the latter method, the medium was removed from test plates, replaced with CellTiter Glo reagent in fresh medium before incubating at RT for 10 min. The well contents were transferred to a white 96-well plate and luminescence measured within 15 min on a Wallac 1450 Microbeta Trilux liquid scintillation counter.

[13] = tested on: HSV-1; assay: Anti-HSV-1 assay (XTT); type: cell-based, herpes simplex virus type 1; details: Human alphaherpesvirus 1; HSV-1 in Vero cells
Source text: Anti-Herpes Simplex Type 1 Virus (HSV-1).
as §1

[14] = tested on: Vero cells; assay: XTT cytotoxicity, Vero cells; type: cell-based, African green monkey; details: HSV-1 assay
[15] = tested on: HCV NS5B replicons, laboratory strains; assay: PhenoSense HCV NS5B assay, laboratory strains; type: cell-based, hepatitis C virus
[16] = tested on: HCV strains containing resistance-associated variants (RAVs); assay: PhenoSense HCV NS5B assay, resistance-associated variants; type: cell-based, hepatitis C virus; details: for EC50: Hepatitis C virus
[17] = tested on: HCV NS5B replicons from clinical isolates; assay: PhenoSense HCV NS5B assay, clinical isolates; type: cell-based, hepatitis C virus; details: for EC50: Hepatitis C virus
[18] = tested on: Huh-luc/neo-ET cells; details: XTT
[19] = tested on: HCV GT1b replicon; assay: HCV GT1b replicon assay (Britelite luciferase reporter)
[20] = target: T2, human DNA polymerase β (Homo sapiens, UniProt P06746); assay: Human DNA polymerase inhibition assay, β; type: biochemical
T2 construct: purchased CHIMERx (Madison, WI)
Experimental: as §2

[21] = tested on: AD38 cells; assay: XTT cytotoxicity, AD38 cells; type: cell-based; details: AD38, HBV assay
Experimental: as §1
(§3) Anti-HBV evaluation. […] The test compound was serially diluted in the RPMI/FBS medium and added to the wells in triplicate (with six wells receiving medium alone as a virus only control). The plate was incubated for 6 days, with a change in medium (+/- compound) on Day 3. Supernatant (100 µL) was collected from each well for analysis of viral DNA by qPCR as described below and cytotoxicity was evaluated by XTT staining of the cell culture monolayer on the sixth day as described above.

[22] = tested on: HBV; assay: Anti-HBV evaluation (qPCR of HBV DNA); type: cell-based; details: Hepatitis B virus; HBV in AD38 cells
Experimental: as §3
Quantitative PCR detection of HBV DNA. Cell culture supernatant (10 µL) was diluted in qPCR dilution buffer (40 µg/mL sheared salmon sperm DNA) and boiled for 15 min. Quantitative real time PCR was performed in […] using an Applied Biosystems 7900HT Sequence Detection System and the supporting SDS 2.4 software. Samples (5 µL boiled DNA) and DNA standards were subjected to real time qPCR using Platinum Quantitative PCR SuperMix-UDG (Invitrogen) and specific DNA oligonucleotide primers (IDT, Coralville, […]) HBV-AD38-qF1 (5’-[…] -3’), HBV-AD38-qR1 (5’-AGT CCA AGA GTY CTC TTA TRY AAG ACC TT-3’), and HBV-AD38-qP1 (5’-FAM-CCG TGT GCA/ZEN/[…] -3’BHQ1) at a final concentration of 0.2 µM for each primer in a total reaction volume of 15 µL. […]

[23] = individual assays, AT-511 batches 1-6, SOF in parallel

SMILES: CCOC(=O)C1=C[C@@H](OC(CC)CC)[C@H](NC(C)=O)[C@@H](N)C1 [Oseltamivir]
- EC50 [1]: 420 nM
- TC50 ([2]; Flu A assay): >10000 nM
- TC50 ([2]; Flu B assay): >10000 nM
- EC50 [3]: 160 nM

SMILES: Cc1ccc(CCCO)c(NCc2ccc3nc(NCCCN4CCOCC4)n(Cc4nc(C)ccc4O)c3c2)c1 [TMC-353121]
- TC50 [4]: >100 nM
- EC50 [5]: 3 nM

SMILES: Nc1nc2c(ncn2[C@@H]2O[C@H](COP(=O)(O)OP(=O)(O)OP(=O)(O)O)[C@@H](O)[C@H]2F)c(=O)[nH]1 [2’-fluoro-2’-dGTP, reference compound]
- IC50 [6]: 10400 nM

SMILES: Nc1nc2c(ncn2[C@@H]2O[C@H](COP(=O)(O)OP(=O)(O)OP(=O)(O)O)[C@@H](O)[C@H]2O)c(=O)[nH]1 [GTP]
- kpol [7]: 21 ± 1 s⁻¹

SMILES: Cc1cn([C@H]2C[C@H](N=[N+]=[N-])[C@@H](CO)O2)c(=O)[nH]c1=O [Zidovudine]
- TC50 [8]: 1000 nM
- TC50 [9]: >500 nM
- EC50 [10]: 4 nM
- TC50 [11]: 2000 nM

SMILES: COc1cc2nc(N3CCN(C(=O)C4COc5ccccc5O4)CC3)nc(N)c2cc1OC (centres unmarked) [doxazosin]
- TC50 [12]: 18000 nM

SMILES: Nc1nc2c(ncn2COCCO)c(=O)[nH]1 [Acyclovir]
- EC50 [13]: 1760 nM
- TC50 [14]: >100000 nM

SMILES: CC(C)OC(=O)[C@H](C)N[P@](=O)(OC[C@H]1O[C@@H](n2ccc(=O)[nH]c2=O)[C@](C)(F)[C@@H]1O)Oc1ccccc1 [SOF, sofosbuvir]
- EC95 ([15]; GT1a H77): 719 nM
- EC95 ([15]; GT1b Con-1): 545 nM
- EC50 ([15]; GT1b Con-1 (control reference)): 89.4 nM
- EC95 ([15]; GT3a S52): 700 nM
- EC50 ([15]; Hepatitis C virus, GT1A, GT1a H77): 83.4 nM
- EC50 ([15]; Hepatitis C virus, GT1B, GT1b Con-1 (control reference)): 89 nM
- EC50 ([15]; Hepatitis C virus, GT2A, GT2a JFH-1): 50.7 nM
- EC50 ([15]; Hepatitis C virus, GT3A, GT3a S52): 117 nM
- EC50 ([15]; Hepatitis C virus, GT4A, GT4a ED43): 158 nM
- EC50 ([15]; Hepatitis C virus, GT5A, GT5a SA13): 287 nM
- EC50 ([15]; Hepatitis C virus, read-out: range in EC50 values across genotypes, panel of six laboratory strains): 51 to 287 nM
- fold range in EC50 values across genotypes ([15]; laboratory strains): 5.6 fold
- EC95 ([16]; GT1a 2_C316N): 473 nM
- EC95 ([16]; GT1a 2c1_L159F): 1068 nM
- EC95 ([16]; GT1a 2c2_L159F_S282T): 16950 nM
- EC95 ([16]; GT1a H77_C316N): 469 nM
- EC95 ([16]; GT1a H77_S282T): 7230 nM
- EC95 ([16]; GT1b Con-1_L159F): 715 nM
- EC95 ([16]; GT1b Con-1_S282T): 7230 nM
- EC95 ([16]; GT2b 2_L159F): 539 nM
- EC50 ([16]; GT1A, GT1a 2_C316N): 73.9 nM
- EC50 ([16]; GT1A, GT1a 2c1_L159F): 115 nM
- EC50 ([16]; GT1A, GT1a 2c2_L159F_S282T): 1620 nM
- EC50 ([16]; GT1A, GT1a H77_C316N): 57.2 nM
- EC50 ([16]; GT1A, GT1a H77_S282T): 1400 nM
- EC50 ([16]; GT1B, GT1b Con-1_L159F): 111 nM
- EC50 ([16]; GT1B, GT1b Con-1_S282T): 950 nM
- EC50 ([16]; GT2B, GT2b 2_L159F): 79.2 nM
- shift in EC50 versus reference strain lacking S282T ([16]; strains with S282T): 15 fold
- shift in EC95 versus reference strain lacking S282T ([16]; strains with S282T): 19 fold
- EC50 ([17]; GT1A, clinical isolate GT1a): 62.7 nM
- EC50 ([17]; GT1B, clinical isolate GT1b): 86 nM
- EC50 ([17]; GT2A, clinical isolate GT2a): 22.5 nM
- EC50 ([17]; GT2B, clinical isolate GT2b): 44.8 nM
- EC50 ([17]; GT3A, clinical isolate GT3a-1): 126 nM
- EC50 ([17]; GT3A, clinical isolate GT3a-2): 123 nM
- EC50 ([17]; GT4A, clinical isolate GT4a): 74.9 nM
- EC50 ([17]; clinical isolate GT4d): 93.7 nM
- EC50 ([17]; read-out: range in EC50 values, eight clinical-isolate replicons): 23 to 126 nM
- EC95 ([17]; clinical isolate GT1a): 508 nM
- EC95 ([17]; clinical isolate GT1b): 642 nM
- EC95 ([17]; clinical isolate GT2a): 195 nM
- EC95 ([17]; clinical isolate GT2b): 295 nM
- EC95 ([17]; clinical isolate GT3a-1): 690 nM
- EC95 ([17]; clinical isolate GT3a-2): 808 nM
- EC95 ([17]; clinical isolate GT4a): 681 nM
- EC95 ([17]; clinical isolate GT4d): 1020 nM
- fold range in EC50 values ([17]; clinical isolates): 5.5 fold
- fold range in EC95 values ([17]; clinical isolates): 5.2 fold
- toxicity to the replicon cells, none up to highest concentration tested [18]: > 1 µM
- TC50 ([18]; individual assays): >1000 nM
- EC50 ([19]; Hepatitis C virus, GT1B, read-out: EC50 range, range over all assays): 33 to 68 nM
- EC50 ([19]; Hepatitis C virus, GT1B, read-out: mean EC50, mean (± SD) of all assays): 48 ± 10 nM
- EC50 [19, 23]: 52.3 nM and 46.5 nM and 67.5 nM and 32.7 nM and 48.3 nM and 40.4 nM and 47.6 nM and 48.1 nM
- EC95 [19, 23]: 360 nM and 231 nM and 387 nM and 197 nM and 247 nM and 198 nM and 275 nM and 263 nM
- mean EC95 ([19]; mean (± SD) of all assays): 270 ± 70 nM and 270 nM
- EC50 ([19]; read-out: EC50 range, range over all assays): 32.7 to 67.5 nM
- EC50 ([19]; read-out: mean EC50, mean (± SD) of all assays): 47.9 nM

SMILES: C[C@H](CCC(=O)O)[C@H]1CC[C@H]2[C@@H]3CC[C@@H]4C[C@H](O)CC[C@]4(C)[C@H]3CC[C@]12C [lithocholic acid, reference compound]
- IC50 [20]: 2910 nM

SMILES: O=c1ccn([C@@H]2O[C@H](COP(=O)(O)OP(=O)(O)OP(=O)(O)O)[C@@H](O)[C@H]2O)c(=O)[nH]1 [UTP]
- kpol [7]: 17 ± 1 s⁻¹

SMILES: CC(C)OC(=O)OCOP(=O)(CO[C@H](C)Cn1cnc2c(N)ncnc21)OCOC(=O)OC(C)C [TDF, tenofovir disoproxil fumarate]
- TC50 [21]: >1000 nM
- EC50 [22]: 230 nM
